# Values of other authors in patent US6943021B2, “Three dimensional vaginal tissue model containing immune cells” (MatTek Corporation, priority 2002, dated 2005).
# System: ectocervical-vaginal tissue
substance,measurement,setting,value
Nonoxynol-9 [N-9],ectocervical-vaginal irritation,finite segment of the population (Reckart 1992),cause ectocervical-vaginal irritation
same,volunteers who experienced ectocervical-vaginal irritation,study evaluating N-9 as an HIV microbicide (Stafford et al. 1998),25%
